The values below come from patent publication US20240059698A1 (Accutar Biotechnology Inc., priority 2022, published 2024).

What all share (assay type): cell-based
The subject of one assay is HCC827 cells. The assay can be described thus: Cell growth inhibition (CellTiter-Glo), HCC827. Conditions: Homo sapiens, 72 h, 3 days. In outline:
(§1)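 HCC827 cells in RPMI and A431 cells in DMEM (both 10% FBS) were seeded at 5000 cells/well and left overnight. They were then exposed to compound dilutions for 3 days at 37° C. Viability was read by CellTiter-Glo luminescence.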

Assay [1] has as its system HCC827-ASV cells (human EGFR exon 20 insertion mutant V769_D770insASV). The assay can be described thus: Cell growth inhibition (CellTiter-Glo), HCC827-ASV. Conditions: 72 h, HCC827-ASV cells, 3 days, CellTiter-Glo, read-out: Cell growth inhibition, GI50 (nM) HCC827-ASV. The method, then:
Generation of HCC827-SVD, HCC827-ASV, and HCC827-YVMA cell lines. The HCC827-SVD cell line was generated by first transducing HCC827 cells (ATCC) with lentiviral particles expressing codon-optimized human EGFR exon 20 insertion mutant D770_N771insSVD, and then selecting under 5 µg/mL puromycin treatment for a week. The resulting cells were further transduced with lentiviral particles carrying EGFR sgRNA and CAS9 to knockout the endogenous alleles of EGER and then selected under 500 µg/mL hygromycin B treatment for two weeks. The limiting dilution approach was used to subsequently generate the single clone of the HCC827-SVD stable cell line. Endogenous EGFR knockout was confirmed by Sanger sequencing of cell genomic DNA, and expression of exogenous mutant EGFR was verified by Western blot analysis.
HCC827-ASV and HCC827-YVMA cell lines were generated in a similar approach as HCC827-SVD, except that HCC827 cells (ATCC) were first transduced with lentiviral particles expressing codon-optimized human EGFR exon 20 insertion mutant V769_D770insASV and human ERBB2 exon20 insertion mutant A775_G776ins YVMA, respectively.
2. Cell Growth Inhibition for HCC827, HCC827-SVD, HCC827-ASV, HCC827-YVMA, and A431.
HCC827(ATCC), HCC827-SVD, HCC827-ASV, and HCC827-YVMA cells were seeded in 96-well plates at 5000 cells/well in 90 μL of RPMI growth medium containing 10% FBS and 1% Penicillin Streptomycin. A431 (ATCC) cells were seeded in 96-well plates at 5000 cells/well in 90 μL of DMEM growth medium containing 10% FBS and 1% Penicillin Streptomycin. Cells were incubated at 37° C. overnight and then administered with 10 μL 10× test compounds prepared in the growth medium at various concentrations. After administration of the compounds, cells were incubated at 37° C. for 3 days. Before the CellTiter-Glo assay, the plates were equilibrated at room temperature for approximately 30 minutes. 100 ul of CellTiter-Glo reagent (Promega) was added to each well. The plates were then incubated at room temperature for 10 minutes and luminescence was recorded by the EnSight® multimode plate reader (PerkinElmer). Table 7 listed selected compounds in cellular growth assay.

The test system of assay [2] is HCC827-SVD cells (human EGFR exon 20 insertion mutant D770_N771insSVD). The assay can be described thus: Cell growth inhibition (CellTiter-Glo), HCC827-SVD. The note with it: 72 h, 3 days. In outline: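 HCC827 cells with endogenous EGFR knocked out and lentivirally expressing the insertion mutant (single clone) were seeded at 5000 cells/well in RPMI with 10% FBS. After overnight, compounds added; 3 days at 37 °C, then CellTiter-Glo luminescence.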

The next assay concerns A431 cells. The assay can be described thus: Cell growth inhibition (CellTiter-Glo), A431. The note with it: Homo sapiens, A-431, 72 h, 3 days. In outline: as §1
The subject of assay [3] is HCC827-YVMA cells (human ERBB2 exon20 insertion mutant A775_G776ins YVMA). Briefly: Cell growth inhibition (CellTiter-Glo), HCC827-YVMA. The note with it: 72 h, HCC827-YVMA cells, 3 days, CellTiter-Glo, read-out: Cell growth inhibition, GI50 (nM) HCC827-YVMA. In outline: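 HCC827 cells transduced with lentiviral codon-optimized mutant (ERBB2 A775_G776insYVMA or EGFR V769_D770insASV), endogenous EGFR knocked out by CRISPR, single clone selected. Cells seeded overnight in RPMI/10% FBS, then exposed to serially diluted compounds at 37 °C for 3 days; viability read by CellTiter-Glo luminescence.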

Molecules are shown by their SMILES. Bounds are passed on as bounds.

For `C=CC(=O)N1CCC(c2c[nH]c3ncnc(Nc4ccc(Oc5ccnc(NC(=O)C6CCCC6)c5)cc4F)c23)CC1` [Compound 90, N-(4-(4-((5-(1-acryloylpiperidin-4-yl)-7H-pyrrolo[2,3-d]pyrimidin-4-yl)amino)-3-fluorophenoxy)pyridin-2-yl)cyclopentanecarboxamide], the GI50 in the assay with HCC827 cells was 50 to 200 nM; in assay [1], < 50 nM; in assay [2], 50 to 200 nM; in the assay on A431 cells, 200 to 1000 nM; in assay [3], < 50 nM.

On to `C=CC(=O)N1CCC(c2ccn3ncnc(Nc4ccc(OCc5ccccn5)c(Cl)c4)c23)CC1` [Compound 198, 1-(4-(4-((3-chloro-4-(pyridin-2-ylmethoxy)phenyl)amino)pyrrolo[2,1-f][1,2,4]triazin-5-yl)piperidin-1-yl)prop-2-en-1-one], for which the GI50 (with HCC827 cells; in assay [1]; in assay [2]; with A431 cells; in assay [3]) was < 50 nM throughout.

Consider `C=CC(=O)N1CCC(c2ccn3ncnc(Nc4ccc(Oc5ccn(Cc6cc(C)ccn6)n5)cc4F)c23)CC1` [Compound 197, 1-(4-(4-((2-fluoro-4-((1-((4-methylpyridin-2-yl)methyl)-1H-pyrazol-3-yl)oxy)phenyl)amino)pyrrolo[2,1-f][1,2,4]triazin-5-yl)piperidin-1-yl)prop-2-en-1-one], for which the GI50 is > 1000 nM with HCC827 cells; > 1000 nM in assay [1]; > 1000 nM in assay [2]; > 1000 nM in the assay on A431 cells; 200 to 1000 nM in assay [3].

Regarding `C=CC(=O)N1CCC(c2c[nH]c3ncnc(Nc4ccc(Oc5ccnc(N6CC(O)(C(F)(F)F)C6)c5)cc4F)c23)CC1` [Compound 144, 1-(4-(4-((2-fluoro-4-((2-(3-hydroxy-3-(trifluoromethyl)azetidin-1-yl)pyridin-4-yl)oxy)phenyl)amino)-7H-pyrrolo[2,3-d]pyrimidin-5-yl)piperidin-1-yl)prop-2-en-1-one], the GI50 was 50 to 200 nM in the assay with HCC827 cells; < 50 nM in assay [1]; > 1000 nM in assay [2]; > 1000 nM in the assay on A431 cells; < 50 nM in assay [3].

Turning to `C=CC(=O)N1CCC(c2csc3ncnc(Nc4ccc(OCc5ccccn5)c(Cl)c4)c23)CC1` [Compound 160, 1-[4-[4-[3-chloro-4-(2-pyridylmethoxy)anilino]thieno[2,3-d]pyrimidin-5-yl]-1-piperidyl]prop-2-en-1-one], the GI50 (in the assay with HCC827 cells; in assay [1]; in assay [2]; with A431 cells; in assay [3]) was < 50 nM in each case.

As to `C=CC(=O)N1CCC(c2c[nH]c3ncnc(Nc4ccc(Oc5ccnc(-n6ccc(OC)n6)c5)cc4F)c23)CC1` [Compound 136, 1-(4-(4-((2-fluoro-4-((2-(3-methoxy-1H-pyrazol-1-yl)pyridin-4-yl)oxy)phenyl)amino)-7H-pyrrolo[2,3-d]pyrimidin-5-yl)piperidin-1-yl)prop-2-en-1-one], the GI50 in the assay on HCC827 cells was 200 to 1000 nM; in assay [1], < 50 nM; in assay [2], 50 to 200 nM; in the assay with A431 cells, > 1000 nM; in assay [3], < 50 nM.

Turning to `C=CC(=O)N1CCC(c2ccn3ncnc(Nc4ccc(Oc5ccnc(N6CCN(C)CC6)c5)cc4F)c23)CC1` [Compound 201, 1-(4-(4-((2-fluoro-4-((2-(4-methylpiperazin-1-yl)pyridin-4-yl)oxy)phenyl)amino)pyrrolo[2,1-f][1,2,4]triazin-5-yl)piperidin-1-yl)prop-2-en-1-one], the GI50 was > 1000 nM with HCC827 cells; > 1000 nM in assay [1]; > 1000 nM in assay [2]; > 1000 nM in the assay on A431 cells; 200 to 1000 nM in assay [3].

On to `C=CC(=O)N1CCC(c2n[nH]c3ncnc(Nc4ccc(Oc5ccn(Cc6cc(C)ccn6)n5)cc4F)c23)CC1` [Compound 164, 1-(4-(4-((2-fluoro-4-((1-((4-methylpyridin-2-yl)methyl)-1H-pyrazol-3-yl)oxy)phenyl)amino)-1H-pyrazolo[3,4-d]pyrimidin-3-yl)piperidin-1-yl)prop-2-en-1-one], for which the GI50 in the assay with HCC827 cells was in the range of 200 to 1000 nM; in assay [1] it was 200 to 1000 nM; in assay [2], 200 to 1000 nM; with A431 cells, 200 to 1000 nM; in assay [3], 50 to 200 nM.

Take `C=CC(=O)N1CCC(c2n[nH]c3ncnc(Nc4ccc(Oc5ccnc(N6CCC(F)(F)C6)c5)cc4F)c23)CC1` [Compound 175, 1-(4-(4-((4-((2-(3,3-difluoropyrrolidin-1-yl)pyridin-4-yl)oxy)-2-fluorophenyl)amino)-1H-pyrazolo[3,4-d]pyrimidin-3-yl)piperidin-1-yl)prop-2-en-1-one]: the GI50 is > 1000 nM with HCC827 cells; 50 to 200 nM in assay [1]; 50 to 200 nM in assay [2]; > 1000 nM in the assay with A431 cells; 50 to 200 nM in assay [3].

Consider `C=CC(=O)N1CCC(c2n[nH]c3ncnc(Nc4ccc(Oc5ccnc(N6CC(O)(C(F)(F)F)C6)c5)cc4F)c23)CC1` [Compound 177, 1-(4-(4-((2-fluoro-4-((2-(3-hydroxy-3-(trifluoromethyl)azetidin-1-yl)pyridin-4-yl)oxy)phenyl)amino)-1H-pyrazolo[3,4-d]pyrimidin-3-yl)piperidin-1-yl)prop-2-en-1-one], for which the GI50 in the assay with HCC827 cells is > 1000 nM; in assay [1], 200 to 1000 nM; in assay [2], 200 to 1000 nM; in the assay on A431 cells it was > 1000 nM; in assay [3], 50 to 200 nM.

In the case of `C=CC(=O)N1CCC(c2n[nH]c3ncnc(Nc4ccc(Oc5ccnc(N6CCC(C(F)(F)F)C6)c5)cc4F)c23)CC1` (centres unmarked) [Compound 173, 1-(4-(4-((2-fluoro-4-((2-(3-(trifluoromethyl)pyrrolidin-1-yl)pyridin-4-yl)oxy)phenyl)amino)-1H-pyrazolo[3,4-d]pyrimidin-3-yl)piperidin-1-yl)prop-2-en-1-one], the GI50 was 200 to 1000 nM with HCC827 cells; < 50 nM in assay [1]; 50 to 200 nM in assay [2]; > 1000 nM in the assay with A431 cells; < 50 nM in assay [3].

Consider `C=CC(=O)N1CCC(c2c[nH]c3ncnc(Nc4ccc(OCc5ccccn5)c(Cl)c4)c23)CC1` [Compound 156, 1-(4-(4-((3-chloro-4-(pyridin-2-ylmethoxy)phenyl)amino)-7H-pyrrolo[2,3-d]pyrimidin-5-yl)piperidin-1-yl)prop-2-en-1-one], for which the GI50 (in the assay on HCC827 cells; in assay [1]; in assay [2]; with A431 cells; in assay [3]) was < 50 nM in each case.

On to `C=CC(=O)N1CCC(c2ccn3ncnc(Nc4ccc(Oc5ccnc(N6CCC[C@@H](OC)C6)c5)cc4F)c23)CC1` [Compound 202, (R)-1-(4-(4-((2-fluoro-4-((2-(3-methoxypiperidin-1-yl)pyridin-4-yl)oxy)phenyl)amino)pyrrolo[2,1-f][1,2,4]triazin-5-yl)piperidin-1-yl)prop-2-en-1-one], for which the GI50 is > 1000 nM with HCC827 cells; 200 to 1000 nM in assay [1]; 50 to 200 nM in assay [2]; > 1000 nM in the assay on A431 cells; 50 to 200 nM in assay [3].
